Laboratory results taken from US10781185B2, “Heterocyclic compounds for the inhibition of PASK” (BioEnergenix LLC, priority 2009, dated 2020).

Tests used:
PASK [1] = molecular target: PASK (Homo sapiens (Human), UniProt Q96RG2); test: PAS Kinase Luminescence Assay (Kinase-Glo); type: biochemical; conditions: purified hPASK from insect cells, read-out: IC50 Kinase Domain
Experimental: Biochemical Assay for hPASK Activity
PAS Kinase Luminescence Assay
One assay for purified hPASK activity utilizes the Kinase-Glo Luminescent Kinase Assay (Promega), which quantifies the amount of ATP remaining in solution following kinase reaction. The assay is carried out in a 96-well plate format and is performed by adding a volume of Kinase-Glo Reagent (Promega, catalog # V3771) equal to the volume of solution in the well of a completed kinase reaction. Kinase-Glo reagent contains Luciferase and its substrate. After addition to a kinase reaction it allows to measure luminescence. The amount of ATP left in solution at the time of Kinase-Glo Plus addition is directly proportional to the luminescence that is measured in each well, and inversely correlated with kinase activity.
Purified hPASK from insect cells (0.02 μg) is added to a 50 μL reaction mix containing 40 mM HEPES (pH 7.0), 100 mM KCl, 5 mM MgCl2, 1 mM DTT and […] of MBP protein. Inhibitory compounds are then added and the mixture is incubated for 10 min at 25° C. before adding 5 μL of ATP (at desired concentration). The reaction is allowed to proceed at 25° C. for 1 hour before adding 50 μL of Kinase-Glo reagent. The luminescence is measured as soon as 10 minutes after Kinase-Glo reagent is added.

PASK [2] = molecular target: PASK (UniProt # Q96RG2; human recombinant N-terminal GST tagged construct, residues 879-1323) (Homo sapiens (Human), UniProt Q96RG2); test: PASK ATP Radiochemical Assay; type: biochemical; conditions: 33P-ATP radiochemical, Myelin Basic Protein substrate; read-out: IC50 Kinase Domain
Sequence of PASK (UniProt # Q96RG2; human recombinant N-terminal GST tagged construct, residues 879-1323) (Homo sapiens (Human), UniProt Q96RG2) (Q96RG2 879-1323, change not shown): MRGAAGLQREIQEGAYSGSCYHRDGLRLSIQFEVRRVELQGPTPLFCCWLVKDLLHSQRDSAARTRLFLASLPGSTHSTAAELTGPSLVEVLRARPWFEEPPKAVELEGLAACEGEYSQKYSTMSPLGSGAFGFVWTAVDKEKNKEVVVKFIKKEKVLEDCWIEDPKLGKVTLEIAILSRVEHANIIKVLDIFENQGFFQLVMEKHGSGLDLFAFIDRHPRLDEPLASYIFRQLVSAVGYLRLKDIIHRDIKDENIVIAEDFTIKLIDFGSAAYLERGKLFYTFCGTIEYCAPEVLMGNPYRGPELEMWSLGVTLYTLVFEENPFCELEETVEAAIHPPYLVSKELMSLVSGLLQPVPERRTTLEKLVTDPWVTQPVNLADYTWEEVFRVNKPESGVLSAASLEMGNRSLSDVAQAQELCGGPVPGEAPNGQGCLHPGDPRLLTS
Experimental: PASK ATP Radiochemical Assay
Test compounds in DMSO are then added and the mixture, followed by delivery of ^33P-ATP (specific activity 0.01 μCi/μl final) to initiate the reaction. […] The entire reaction mixture is washed through onto a P81 Phosphocellulose paper and washed three times for 10 minutes in 75 mM phosphoric acid and once in methanol prior to drying and scintillation counting.

Sequence of PASK (Homo sapiens (Human), UniProt Q96RG2) (Q96RG2 999-1251): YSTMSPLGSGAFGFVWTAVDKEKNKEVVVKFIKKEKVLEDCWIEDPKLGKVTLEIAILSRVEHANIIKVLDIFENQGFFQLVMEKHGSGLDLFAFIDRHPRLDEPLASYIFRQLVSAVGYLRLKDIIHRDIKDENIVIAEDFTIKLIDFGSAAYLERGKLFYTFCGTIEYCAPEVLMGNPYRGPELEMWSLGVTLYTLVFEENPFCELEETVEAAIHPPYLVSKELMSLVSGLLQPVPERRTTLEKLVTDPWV

IC50 (PASK [1]) [µM]	IC50 (PASK [2]) [µM]	Structure (SMILES)
< 10		COc1ccc(C2CCN(c3nc4cc(C(=O)O)ccc4nc3-c3ccccc3)CC2)cc1 [Example 11, 3-(4-(4-Methoxyphenyl)piperidin-1-yl)-2-phenylquinoxaline-6-carboxylic acid]
< 10	< 10	O=C(O)c1ccc2nc(-c3ccccc3)c(N3CCOCC3)nc2c1 [Example 16, 3-Morpholino-2-phenylquinoxaline-6-carboxylic acid]
< 10	< 10	CN1CCCN(c2nc3cc(C(=O)O)ccc3nc2-c2ccccc2)CC1 [Example 17, 3-(4-Methyl-1,4-diazepan-1-yl)-2-phenylquinoxaline-6-carboxylic acid]
< 10	< 10	O=C(O)c1ccc2nc(-c3ccccc3)c(N3CCN(c4ncccn4)CC3)nc2c1 [Example 19, 2-Phenyl-3-(4-(pyrimidin-2-yl)piperazin-1-yl)quinoxaline-6-carboxylic acid]
< 10	< 10	O=C(O)c1ccc2nc(-c3ccccc3)c(N3CCN(c4ccc(C(F)(F)F)cn4)CC3)nc2c1 [Example 20, 2-Phenyl-3-(4-(5-(trifluoromethyl)pyridin-2-yl)piperazin-1-yl)quinoxaline-6-carboxylic acid]
< 10	< 10	O=C(O)c1ccc2nc(-c3ccccc3)c(N3CCN(c4ccc5ccccc5n4)CC3)nc2c1 [Example 21, 2-phenyl-3-(4-(quinolin-2-yl)piperazin-1-yl)quinoxaline-6-carboxylic acid]
> 10		O=C(O)c1ccc2nc(N3CCCCCC3)c(-c3ccccc3)nc2c1 [Example 22, 2-(Azepan-1-yl)-3-phenylquinoxaline-6-carboxylic acid]
< 10		O=C(O)c1ccc2nc(N3CCCCC3)c(-c3ccccc3)nc2c1 [Example 23, 3-Phenyl-2-(piperidin-1-yl)quinoxaline-6-carboxylic acid]
< 10	< 10	O=C(O)c1ccc2nc(N3CCC(c4ccc(Cl)cc4)CC3)c(-c3ccc(F)cc3)nc2c1 [Example 24, 2-(4-(4-Chlorophenyl)piperidin-1-yl)-3-(4-fluorophenyl)quinoxaline-6-carboxylic acid]
< 10		O=C(O)c1ccc2nc(N3CCC(c4cccc(Cl)c4)CC3)c(-c3ccc(F)cc3)nc2c1 [Example 25, 2-(4-(3-Chlorophenyl)piperidin-1-yl)-3-(4-fluorophenyl)quinoxaline-6-carboxylic acid]
< 10	< 10	COc1ccc(C2CCN(c3nc4ccc(C(=O)O)cc4nc3-c3ccc(F)cc3)CC2)cc1 [Example 26, 3-(4-Fluorophenyl)-2-(4-(4-methoxyphenyl)piperidin-1-yl)quinoxaline-6-carboxylic acid]
< 10	> 10	O=C(O)c1ccc2nc(N3CCC(c4ccc(C(F)(F)F)cc4)CC3)c(-c3ccc(F)cc3)nc2c1 [Example 29, 3-(4-Fluorophenyl)-2-(4-(4-(trifluoromethyl)phenyl)piperidin-1-yl)quinoxaline-6-carboxylic acid]
< 10	< 10	COc1ccc(-c2nc3ccc(-c4nnn[nH]4)cc3nc2-c2ccc(OC)cc2)cc1 [Example 31, 2,3-Bis(4-methoxyphenyl)-6-(1H-tetrazol-5-yl)quinoxaline]

Structure (SMILES)	IC50 (PASK [1]) [µM]	IC50 (PASK [2]) [µM]
O=C(O)c1ccc2nc(N3CCN(c4ccccn4)CC3)c(-c3ccc(F)cc3)nc2c1 [Example 27, 3-(4-Fluorophenyl)-2-(4-(pyridin-2-yl)piperazin-1-yl)quinoxaline-6-carboxylic acid]	< 10	
O=C(O)c1ccc2nc(N3CCC(c4ccccc4)CC3)c(N3CCC(c4ccccc4)CC3)nc2c1 [Example 30, 2,3-Bis(4-phenylpiperidin-1-yl)quinoxaline-6-carboxylic acid]	< 10	< 10
